Assay: xn = mol fraction of the nth substance listed

CC(O)CO (configuration not stated) + CCOC(C)=O
viscosity [mPa·s], 101.3 kPa
Details	x2 = 0.0929	x2 = 0.1906	x2 = 0.2984	x2 = 0.4082	x2 = 0.5085	x2 = 0.6062	x2 = 0.7032	x2 = 0.7968	x2 = 0.8998
298.15 K	20.11	10.09	5.084	2.919	1.869	1.238	0.8932	0.6933	0.5327
303.15 K	15.92	8.28	4.306	2.516	1.663	1.115	0.8175	0.6419	0.5008
308.15 K	12.64	6.743	3.661	2.193	1.47	1.011	0.7525	0.5957	0.4714
313.15 K	10.17	5.587	3.146	1.924	1.313	0.9178	0.6971	0.5565	0.4442
318.15 K	8.35	4.705	2.729	1.705	1.177	0.8394	0.6418	0.5191	0.4197
323.15 K	6.893	4.021	2.377	1.514	1.072	0.7691	0.5964	0.4882	0.3962

ClC=C(Cl)Cl + CCOCCO
viscosity [mPa·s], 101.33 kPa
Details	x1 = 0.1191	x1 = 0.2226	x1 = 0.3214	x1 = 0.4322	x1 = 0.5234	x1 = 0.6128	x1 = 0.7066	x1 = 0.8105	x1 = 0.9057
303.15 K	1.453	1.286	1.134	0.976	0.865	0.769	0.687	0.614	0.557
313.15 K	1.166	1.052	0.946	0.829	0.747	0.676	0.612	0.555	0.511

CC(O)CO (configuration not stated) + CN1CCCC1=O
101.33 kPa
Details	viscosity [mPa·s]
298.15 K, x2 = 0.03556	37.57
298.15 K, x2 = 0.09927	27.77
298.15 K, x2 = 0.195	18.05
298.15 K, x2 = 0.3013	11.78
298.15 K, x2 = 0.4032	8.207
298.15 K, x2 = 0.5025	5.965
298.15 K, x2 = 0.5936	4.558
298.15 K, x2 = 0.6967	3.452
298.15 K, x2 = 0.7994	2.682
298.15 K, x2 = 0.9144	2.042
298.15 K, x2 = 0.942	1.918
308.15 K, x2 = 0.05805	19.68
308.15 K, x2 = 0.1023	16.23
308.15 K, x2 = 0.1977	11.09
308.15 K, x2 = 0.2949	8.059
308.15 K, x2 = 0.407	5.667
308.15 K, x2 = 0.5051	4.3
308.15 K, x2 = 0.5903	3.441
308.15 K, x2 = 0.7066	2.66
308.15 K, x2 = 0.7992	2.172
308.15 K, x2 = 0.8842	1.81
308.15 K, x2 = 0.9388	1.623
318.15 K, x2 = 0.05313	12.45
318.15 K, x2 = 0.1009	10.51
318.15 K, x2 = 0.1905	7.664
318.15 K, x2 = 0.2992	5.559
318.15 K, x2 = 0.4025	4.21
318.15 K, x2 = 0.5017	3.319
318.15 K, x2 = 0.5999	2.697
318.15 K, x2 = 0.6946	2.204
318.15 K, x2 = 0.7967	1.805
318.15 K, x2 = 0.8916	1.507
318.15 K, x2 = 0.9393	1.378

O=C1CCCC1 + CN(C)c1ccccc1
viscosity [mPa·s], 101 kPa
Details	303.15 K	308.15 K
x2 = 0.0705	1.022	0.948
x2 = 0.1321	1.04	0.964
x2 = 0.2014	1.062	0.981
x2 = 0.2754	1.083	0.997
x2 = 0.3412	1.101	1.011
x2 = 0.4012	1.114	1.023
x2 = 0.4825	1.13	1.039
x2 = 0.5612	1.143	1.053
x2 = 0.6405	1.153	1.066
x2 = 0.7025	1.158	1.076
x2 = 0.7758	1.164	1.087
x2 = 0.8512	1.168	1.096
x2 = 0.9215	1.169	1.104

O=C1CCCC1 + CNC=O
viscosity [mPa·s], 101 kPa
Details	x2 = 0.0865	x2 = 0.1756	x2 = 0.2675	x2 = 0.3623	x2 = 0.4601	x2 = 0.5611	x2 = 0.6654	x2 = 0.7732	x2 = 0.8847
303.15 K	1.041	1.104	1.165	1.226	1.293	1.355	1.412	1.467	1.532
308.15 K	0.9797	1.035	1.09	1.144	1.204	1.258	1.309	1.358	1.414
313.15 K	0.9075	0.9589	1.01	1.059	1.114	1.164	1.21	1.255	1.307
318.15 K	0.8512	0.8981	0.9442	0.9895	1.039	1.085	1.127	1.167	1.215

Source: the CheMixHub viscosity set
